{
  "source": "patent US7381746B2",
  "about": "“2-Aminobicyclo[3.1.0]hexane-2,6-dicarboxylic acid derivative” (Taisho Pharmaceutical Co., Ltd., priority 2003, dated 2008)",
  "data": [
    {"units": {"melting point": "°C"}, "values": [
      {"smiles": "N[C@]1(C(=O)O)[C@H]2[C@@H](C[C@H]1SCc1ccc(Cl)c(Cl)c1)[C@]2(F)C(=O)O", "note": "[Compound 9, (1R,2S,3R,5R,6R)-2-amino-3-(3,4-dichlorobenzylsulfanyl)-6-fluorobicyclo[3.1.0]hexane-2,6-dicarboxylic acid]", "melting point": "> 220"},
      {"smiles": "N[C@]1(C(=O)O)[C@H]2[C@@H](C[C@H]1Sc1ccc(Cl)c(Cl)c1)[C@]2(F)C(=O)O", "note": "[Compound 12, (1R,2S,3R,5R,6R)-2-amino-3-(3,4-dichlorophenylsulfanyl)-6-fluorobicyclo[3.1.0]hexane-2,6-dicarboxylic acid]", "melting point": "> 235"},
      {"smiles": "CC(S[C@@H]1C[C@@H]2[C@H]([C@]1(N)C(=O)O)[C@@]2(F)C(=O)O)c1ccccc1", "note": "(stereo partly drawn) [Compound 15, (1R,2S,3R,5R,6R)-2-amino-3-(1-phenyl-ethylsulfanyl)-6-fluorobicyclo[3.1.0]hexane-2,6-dicarboxylic acid]", "melting point": "> 307"},
      {"smiles": "CC(C)(C)c1ccc(CS[C@@H]2C[C@@H]3[C@H]([C@]2(N)C(=O)O)[C@@]3(F)C(=O)O)cc1", "note": "[Compound 5, (1R,2S,3R,5R,6R)-2-amino-3-(4-t-butylbenzylsulfanyl)-6-fluorobicyclo[3.1.0]hexane-2,6-dicarboxylic acid]", "melting point": "> 271"},
      {"smiles": "N[C@]1(C(=O)O)[C@H]2[C@@H](C[C@H]1SCc1cccs1)[C@]2(F)C(=O)O", "note": "[Compound 1, (1R,2S,3R,5R,6R)-2-amino-3-(thiophene-2-ylmethylsulfanyl)-6-fluorobicyclo[3.1.0]hexane-2,6-dicarboxylic acid]", "melting point": "> 230"},
      {"smiles": "COc1ccc(CS[C@@H]2C[C@@H]3[C@H]([C@]2(N)C(=O)O)[C@@]3(F)C(=O)O)cc1", "note": "[Compound 3, (1R,2S,3R,5R,6R)-2-amino-3-(4-methoxybenzylsulfanyl)-6-fluorobicyclo[3.1.0]hexane-2,6-dicarboxylic acid]", "melting point": "> 240"},
      {"smiles": "N[C@]1(C(=O)O)[C@H]2[C@@H](C[C@H]1SC(c1ccc(F)cc1)c1ccc(F)cc1)[C@]2(F)C(=O)O", "note": "[Compound 16, (1R,2S,3R,5R,6R)-2-amino-3-[bis-(4-fluorophenyl)methylsulfanyl]-6-fluorobicyclo[3.1.0]hexane-2,6-dicarboxylic acid]", "melting point": "> 243"},
      {"smiles": "N[C@]1(C(=O)O)[C@@H]2[C@@H](C[C@H]1SCc1ccc(Cl)c(Cl)c1)[C@H]2C(=O)O", "note": "[Compound 8, (1R,2S,3R,5R,6R)-2-amino-3-(3,4-dichlorobenzylsulfanyl)-bicyclo[3.1.0]hexane-2,6-dicarboxylic acid]", "melting point": "> 289"},
      {"smiles": "N[C@@H]1C[C@@H]2[C@H]([C@]1(N)C(=O)O)[C@@]2(F)C(=O)O", "note": "[Compound 17, (1R,2R,3R,5R,6R)-2,3-diamino-6-fluorobicyclo[3.1.0]hexane-2,6-dicarboxylic acid]", "melting point": "> 256"},
      {"smiles": "N[C@]1(C(=O)O)[C@H]2[C@@H](C[C@H]1SCc1ccccc1-c1ccccc1)[C@]2(F)C(=O)O", "note": "[Compound 2, (1R,2S,3R,5R,6R)-2-amino-3-(2-phenylbenzylsulfanyl)-6-fluorobicyclo[3.1.0]hexane-2,6-dicarboxylic acid]", "melting point": "> 230"},
      {"smiles": "N[C@]1(C(=O)O)[C@H]2[C@@H](C[C@H]1NCc1ccc(Cl)c(Cl)c1)[C@]2(F)C(=O)O", "note": "[Compound 18, (1R,2R,3R,5R,6R)-2-amino-3-(3,4-dichlorobenzylamino)-6-fluorobicyclo[3.1.0]hexane-2,6-dicarboxylic acid]", "melting point": "> 190"},
      {"smiles": "N[C@]1(C(=O)O)[C@H]2[C@@H](C[C@H]1SCc1cccc(C(F)(F)F)c1)[C@]2(F)C(=O)O", "note": "[Compound 6, (1R,2S,3R,5R,6R)-2-amino-3-(3-trifluoromethylbenzylsulfanyl)-6-fluorobicyclo[3.1.0]hexane-2,6-dicarboxylic acid]", "melting point": "> 271"},
      {"smiles": "N[C@]1(C(=O)O)[C@H]2[C@@H](C[C@H]1SCc1ccc(F)cc1)[C@]2(F)C(=O)O", "note": "[Compound 4, (1R,2S,3R,5R,6R)-2-amino-3-(4-fluorobenzylsulfanyl)-6-fluorobicyclo[3.1.0]hexane-2,6-dicarboxylic acid]", "melting point": "> 243"},
      {"smiles": "N[C@]1(C(=O)O)[C@H]2[C@@H](C[C@H]1SCc1ccc3ccccc3c1Br)[C@]2(F)C(=O)O", "note": "[Compound 7, (1R,2S,3R,5R,6R)-2-amino-3-(1-bromo-naphthalene-2-ylmethylsulfanyl)-6-fluorobicyclo[3.1.0]hexane-2,6-dicarboxylic acid]", "melting point": "> 280"},
      {"smiles": "N[C@]1(C(=O)O)[C@H]2[C@@H](C[C@H]1SCc1c(F)ccc(Cl)c1F)[C@]2(F)C(=O)O", "note": "[Compound 13, (1R,2S,3R,5R,6R)-2-amino-3-(3-chloro-2,6-difluorobenzylsulfanyl)-6-fluorobicyclo[3.1.0]hexane-2,6-dicarboxylic acid]", "melting point": "> 234"}
    ]}
  ]
}
